These results are taken from patent US20240391931A1 (Bristol-Myers Squibb Company, priority 2021, published 2024).

Structures can show the parent of a compound that is named as a salt. Where two headings read alike, the source gives them in different places.

The subject of one experiment is Ba/F3 HER2YVMA cells. Description: Cellular proliferation in Ba/F3 HER2YVMA cells. The conditions noted are these: Mus musculus, BaF3, read-out: Ba/F3 YVMA GI50. It is filed as cell-based, murine. The protocol: (§1) Engineered lines expressing HER2YVMA and HER2 WT were prepared in HEK293 (human embryonic kidney cells), Ba/F3 (Interleukin 3 (IL3)-dependent murine pro B cell line), and BEAS2B (primary immortalized human bronchial epithelial cell line). Ba/F3, BEAS2B, and HEK293 cells were obtained from the American Type Culture Collection (ATCC, Manassas, VA). Parental Ba/F3 cells were grown in suspension in complete RPMI 1640 supplemented with 10% FBS and 1% P/S and 10 ng/ml interleukin 3 (IL3, Sigma-Aldrich). Hek293 and BEAS2B cells were grown as monolayers in DMEM supplemented with 10% FBS and 1% P/S. All cells were maintained and propagated in a humidified 5% CO2 incubator at 37° C.
To generate Ba/F3, BEAS2B, and Hek-293 cells engineered with lentivirus to express HER2 WT or HER2YVMA, the cells were transduced with lentiviruses at multiplicity of infection (MOI) of 1 or 10; transduced cells were selected and maintained with G418 ([…]) (Geneticin, Life Technologies, Carlsbad, CA). Ba/F3 engineered cells were subjected to gradual withdrawal of interleukin 3 (IL-3, Sigma-Aldrich). After selection, IL3 independent Ba/F3 HER2YVMA, and BEAS2B HER2YVMA cells were cloned by limiting dilution. Hek293 HER2YVMA cells were used as pool. HER2 and phospho HER2 levels were confirmed by flow cytometery and immunoassay (MSD, Meso-Scale Discovery, Rockville, Maryland).
(§2) Cell proliferation in non-adherent cells was investigated in Ba/F3 parental (IL3-dependent) and in the two IL3 independent cell clones tranduced to express mutant HER2 protein containing the YVMA insertion (Ba/F3 HER2YVMA). Cells were plated in DMEM supplemented with 10% FBS, 1% P/S, and 10 ng/ml IL3 (for parental Ba/F3 only) in 96-well white clear-bottom tissue culture plates (Costar, Sigma-Aldrich) at a starting cell density of 7500 cells. An 8-point standard curve with varying cell densities (starting at 100,000 cells and serially diluting down 2-fold) was prepared for each cell line and read after plating. Compound solutions were prepared in serum free media, and cells were treated as described above for adherent cells. Cell viability was determined by CellTiter Glo (Promega, Madison, WI) after 72 h. The results were converted to cell numbers using a standard curve; growth inhibition (GI50 values) were determined by Graph Pad Prism.
(§3) The results of these experiments show the ability of compounds to inhibit cell growth in HER2 dependent cell lines and a control cell line (Ba/F3 parental) are depicted in Table 4 in the columns titled “G150 (nM)”. Ba/F3 parental results fall under the heading “Ba/F3 parental-G150”, and Ba/F3 HER2YVMA fall under the heading “Ba/F3 YVMA-G150”.

The subject of a further experiment is Ba/F3 parental cells. Description: Cellular proliferation in Ba/F3 parental (IL3-dependent) cells. The experiment is classed as cell-based, murine. The settings on record: Mus musculus, BaF3. The protocol: as §1, §2, §3
In another experiment the target is T1, HER2 (Homo sapiens, UniProt P04626).
T1 construct: BT474 and N87 cell lines which endogenously overexpress the HER2 wildtype (WT) protein; endogenous in cells; host or cells: BT474, N87
Description: HER2 occupancy assay in N87 cells. The experiment is classed as cell-based. The conditions noted are these: concentration at which 50% of HER2 is irreversible bound, read-out: N87 HER2 Occ. The procedure: In order to assess free HER2 protein, a biotinylated probe was utilized. BT474, N87, and Ba/F3-HER2YVMA cells were treated with test compound as described for HER2 signaling. After compound treatment, cells were washed three times with cold phosphate buffer saline (PBS, Life Technologies, Carlsbad, CA), and lysed in modified occupancy lysis buffer prepared with an irreversible biotinylated tool compound (1 μM) in 25 mM Tris pH 7.5, 150 mM NaCl, 1% Triton, and supplemented with cOmplete, EDTA-free Protease inhibitor cocktail (Roche), Phosphatase Inhibitor Cocktails 2 and 3 (Sigma-Aldrich), and 1 mM PMSF (Sigma-Aldrich).
To determine % occupancy, lysates were loaded into duplicate plates of the phospho (Tyr1248)/total ErbB2 whole cell lysate MSD kit (Meso-Scale Discovery) and incubated overnight. Plates were washed and incubation with either HER2-sulfoTag (1:50, Meso Scale Discovery) or Strep-Sulfo Tag (1:1000, Meso Scale Discovery), for detection of […]. A standard curve of untreated cells in serial dilution was included in each plate to independently fit streptavidin (Free HER2) and total HER2 MSD signals; non-specific signal (BSA control spots) was subtracted from each well. Free HER2 was then normalized by total HER2 for each sample. The results are reported as % DMSO control. The normalized data was fitted using a sigmoidal curve analysis program (Graph Pad Prism version 6) with variable Hill slope to determine EC50 values. The results are provided in Table 4, under columns titled “BT474-HER2 Occ”, “N87-HER2 Occ”, and “Ba/F3 YVMA-HER2 Occ”. HER2 Occ is the concentration of test compound at which 50% of HER2 is irreversible bound.

A further experiment addresses EGFR (Homo sapiens, UniProt P00533). Description: EGFR occupancy in N87 cells. It is filed as cell-based. More on the design: endogenous in cells; host or cells: N87. The procedure: In order to assess free EGFR protein, a biotinylated probe was utilized as described for HER2 occupancy. N87 cells were plated, treated, and lysed as described for HER2 occupancy method. After treatment, the cells were washed three times with cold PBS, lysed at room temperature for 1 hr in modified occupancy lysis buffer (prepared as described in section titled “HER2 Occupancy Assay”). Lysates were stored at −70° C. until further analysis. For determination of % occupancy, lysates were loaded into duplicate plates of the phospho (Tyr 1068)/total EGFR whole cell lysate kit (Meso-Scale Discovery) and incubated overnight. Plates were washed and incubated with either EGFR-sulfoTag (1:50, Meso Scale Discovery) or Strep-Sulfo Tag (1:1000, Meso Scale Discovery), for detection of free and total EGFR, respectively. BSA control spots included in MSD plates were used to subtract non-specific signal. A standard curve of untreated cells in serial dilution was included in each plate to convert streptavidin and total EGFR MSD signals into free EGFR and total EGFR. Free EGFR was normalized to total EGFR for each sample. Data, reported as % […] control, was fitted using a sigmoidal curve analysis program (Graph Pad Prism version 6) with variable Hill slope to determine EC50 values. The results are provided in Table 4, under column titled “N87-EGFR Occ”. EGFR Occ is the concentration of test compound at which 50% of EGFR is irreversible bound.

The mark [1] stands for this setting: N87 cells, concentration at which 50% of EGFR is irreversible bound, read-out: N87 EGFR Occ.

T1 sequence (P04626 23-1255): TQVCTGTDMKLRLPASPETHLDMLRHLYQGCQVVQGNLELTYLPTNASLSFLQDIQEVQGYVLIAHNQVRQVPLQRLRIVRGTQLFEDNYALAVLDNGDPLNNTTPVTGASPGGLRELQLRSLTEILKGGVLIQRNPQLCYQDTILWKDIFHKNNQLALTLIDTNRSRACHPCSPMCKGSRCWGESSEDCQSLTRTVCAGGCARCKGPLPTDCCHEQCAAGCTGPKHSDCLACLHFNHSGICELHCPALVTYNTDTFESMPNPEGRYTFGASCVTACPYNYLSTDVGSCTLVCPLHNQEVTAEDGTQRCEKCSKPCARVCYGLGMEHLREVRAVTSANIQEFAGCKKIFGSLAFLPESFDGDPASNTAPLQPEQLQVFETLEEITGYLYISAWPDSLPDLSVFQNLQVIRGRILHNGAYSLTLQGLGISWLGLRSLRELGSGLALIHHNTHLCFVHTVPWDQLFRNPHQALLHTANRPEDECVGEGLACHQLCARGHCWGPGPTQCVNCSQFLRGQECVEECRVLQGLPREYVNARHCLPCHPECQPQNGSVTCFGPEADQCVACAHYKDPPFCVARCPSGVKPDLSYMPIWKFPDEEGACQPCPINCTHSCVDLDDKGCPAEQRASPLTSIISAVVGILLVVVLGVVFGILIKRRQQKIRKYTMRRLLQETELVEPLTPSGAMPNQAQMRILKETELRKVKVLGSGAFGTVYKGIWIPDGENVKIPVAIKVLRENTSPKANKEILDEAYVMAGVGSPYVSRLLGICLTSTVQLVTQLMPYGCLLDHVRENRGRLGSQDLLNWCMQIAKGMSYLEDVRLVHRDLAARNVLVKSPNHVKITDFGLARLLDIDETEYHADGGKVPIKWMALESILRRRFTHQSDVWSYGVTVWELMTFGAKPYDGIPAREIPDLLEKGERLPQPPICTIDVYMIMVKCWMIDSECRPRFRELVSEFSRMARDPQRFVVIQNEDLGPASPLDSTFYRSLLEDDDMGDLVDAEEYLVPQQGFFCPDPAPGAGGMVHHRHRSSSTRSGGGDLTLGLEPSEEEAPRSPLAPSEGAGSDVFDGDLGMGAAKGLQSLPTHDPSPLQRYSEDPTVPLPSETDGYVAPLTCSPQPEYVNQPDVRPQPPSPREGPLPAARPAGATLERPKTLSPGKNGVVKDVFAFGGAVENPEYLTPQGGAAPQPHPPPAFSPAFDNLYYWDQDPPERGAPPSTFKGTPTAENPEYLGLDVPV
Sequence of EGFR (P00533 25-1210): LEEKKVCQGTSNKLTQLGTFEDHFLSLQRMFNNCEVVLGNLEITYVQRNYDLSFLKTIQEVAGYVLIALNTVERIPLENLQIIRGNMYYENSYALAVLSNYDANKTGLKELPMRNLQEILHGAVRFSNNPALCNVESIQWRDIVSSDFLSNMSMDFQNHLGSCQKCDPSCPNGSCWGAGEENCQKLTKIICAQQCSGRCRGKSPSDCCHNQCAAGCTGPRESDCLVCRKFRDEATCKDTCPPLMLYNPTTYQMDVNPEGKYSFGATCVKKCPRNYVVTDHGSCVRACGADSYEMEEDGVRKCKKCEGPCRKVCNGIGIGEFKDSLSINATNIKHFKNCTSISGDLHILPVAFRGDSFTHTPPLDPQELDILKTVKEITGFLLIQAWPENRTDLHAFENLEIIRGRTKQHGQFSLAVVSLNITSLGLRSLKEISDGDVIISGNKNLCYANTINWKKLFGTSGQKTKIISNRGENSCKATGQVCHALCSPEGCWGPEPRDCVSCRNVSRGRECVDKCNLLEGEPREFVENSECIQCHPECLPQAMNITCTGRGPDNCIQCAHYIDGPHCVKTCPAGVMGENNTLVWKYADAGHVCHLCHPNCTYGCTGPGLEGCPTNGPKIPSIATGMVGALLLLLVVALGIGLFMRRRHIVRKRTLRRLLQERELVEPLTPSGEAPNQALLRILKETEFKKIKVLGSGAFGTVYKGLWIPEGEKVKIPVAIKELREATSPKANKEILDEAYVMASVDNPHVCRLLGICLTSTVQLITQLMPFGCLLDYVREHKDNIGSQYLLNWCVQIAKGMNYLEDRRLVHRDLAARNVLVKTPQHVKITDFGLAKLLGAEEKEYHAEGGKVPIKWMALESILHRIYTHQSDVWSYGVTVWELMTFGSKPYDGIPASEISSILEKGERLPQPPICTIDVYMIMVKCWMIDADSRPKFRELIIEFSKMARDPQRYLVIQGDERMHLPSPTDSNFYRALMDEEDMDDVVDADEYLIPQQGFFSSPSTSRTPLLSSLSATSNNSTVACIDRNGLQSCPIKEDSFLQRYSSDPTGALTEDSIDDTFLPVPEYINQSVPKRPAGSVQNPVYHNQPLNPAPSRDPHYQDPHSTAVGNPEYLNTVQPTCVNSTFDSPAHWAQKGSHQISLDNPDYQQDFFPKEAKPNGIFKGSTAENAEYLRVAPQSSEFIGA

For `Cc1nc2cc(Oc3ccc(Nc4ncnc5sc6c(c45)CCN(C(=O)/C=C/CN(C)C)C6)cc3C)ccn2n1` [Compound 127, (E)-4-(dimethylamino)-1-(4-((3-methyl-4-((2-methyl-[1,2,4]triazolo[1,5-a]pyridin-7-yl)oxy)phenyl)amino)-5,6-dihydropyrido[4′,3′:4,5]thieno[2,3-d]pyrimidin-7(8H)-yl)but-2-en-1-one], the GI50 in the experiment with Ba/F3 HER2YVMA cells was in the range of 100 to 1000 nM; in the experiment on Ba/F3 parental cells, 1000 to 10000 nM.
`Cc1ccc(Oc2ccc(Nc3ncnc4sc5c(c34)CCN(C(=O)/C=C/CN3CC4CC(C3)O4)C5)cc2C)cn1` [Compound 15]: the EC50 at HER2 and at EGFR (setting [1]) was under 100 nM each time.
On to `Cc1cc(Nc2ncnc3sc4c(c23)CCN(C(=O)/C=C/CN2CCOCC2)C4)ccc1Oc1ccc2ncnn2c1` [Compound 12], for which the EC50 is under 100 nM on HER2 and over 1000 nM on EGFR (setting [1]).
In the case of `COc1ccc(Oc2ccc(Nc3ncnc4sc5c(c34)CN(C(=O)/C=C/CN(C)C)C5)cc2C)cn1` [Compound 128, (E)-4-(dimethylamino)-1-(4-((4-((6-methoxypyridin-3-yl)oxy)-3-methylphenyl)amino)-5,7-dihydro-6H-pyrrolo[3′,4′:4,5]thieno[2,3-d]pyrimidin-6-yl)but-2-en-1-one], the EC50 on HER2 was under 100 nM; on EGFR (setting [1]) it was over 1000 nM. In addition, the GI50 was under 100 nM in the experiment on Ba/F3 HER2YVMA cells and 1000 to 10000 nM in the experiment with Ba/F3 parental cells.
`Cc1cc(Nc2ncnc3sc4c(c23)CCN(C(=O)/C=C/CN(C)C)C4)ccc1Oc1ccn2ccnc2c1` [Compound 126, (E)-4-(dimethylamino)-1-(4-((4-(imidazo[1,2-a]pyridin-7-yloxy)-3-methylphenyl)amino)-5,8-dihydropyrido[4′,3′:4,5]thieno[2,3-d]pyrimidin-7(6H)-yl)but-2-en-1-one]: the GI50 in the experiment on Ba/F3 HER2YVMA cells was under 100 nM; in the experiment with Ba/F3 parental cells, 1000 to 10000 nM.
Regarding `Cc1ccc(Oc2ccc(Nc3ncnc4sc5c(c34)CCN(C(=O)/C=C/CN3CC4CCC3C4)C5)cc2C)cn1` (stereo not shown) [Compound 14], the EC50 on HER2 and at EGFR (setting [1]) was under 100 nM each time.
With `Cc1cc(Nc2ncnc3sc4c(c23)CN(C(=O)/C=C/CN(C)C)C4)ccc1Oc1ccn2ncnc2c1` [Compound 130, (E)-1-(4-((4-([1,2,4]Triazolo[1,5-a]pyridin-7-yloxy)-3-methylphenyl)amino)-5H-pyrrolo[3′,4′:4,5]thieno[2,3-d]pyrimidin-6(7H)-yl)-4-(dimethylamino)but-2-en-1-one], the values for the GI50 in the experiment with Ba/F3 HER2YVMA cells and with Ba/F3 parental cells were under 100 nM and 1000 to 10000 nM, respectively.
The like results for `Cc1ccc(Oc2ccc(Nc3ncnc4sc5c(c34)CCN(C(=O)/C=C/CN3CC[C@H](F)C3)C5)cc2C)cn1` [Compound 124] were, in that order, under 100 nM and 1000 to 10000 nM.
Take `Cc1ccc(Oc2ccc(Nc3ncnc4sc5c(c34)CN(C(=O)/C=C/CN(C)C)C5)cc2Cl)cn1` [Compound 129, (E)-1-(4-((3-Chloro-4-((6-methylpyridin-3-yl)oxy)phenyl)amino)-5H-pyrrolo[3′,4′:4,5]thieno[2,3-d]pyrimidin-6(7H)-yl)-4-(dimethylamino)but-2-en-1-one]: the EC50 on HER2 is under 100 nM; on EGFR (setting [1]), 100 to 350 nM. For the same molecule, the GI50 in the experiment with Ba/F3 HER2YVMA cells is under 100 nM.
On to `Cc1ccc(Oc2ccc(Nc3ncnc4sc5c(c34)CCN(C(=O)/C=C/CN(C)C)C5)cc2C)cn1` [Compound 8, (E)-4-(Dimethylamino)-1-(4-((3-methyl-4-((6-methylpyridin-3-yl)oxy)phenyl)amino)-5,6-dihydropyrido[4′,3′:4,5]thieno[2,3-d]pyrimidin-7(8H)-yl)but-2-en-1-one], for which the EC50 on HER2 and on EGFR (setting [1]) was under 100 nM each time. In addition, the GI50 was under 100 nM in the experiment with Ba/F3 HER2YVMA cells and 1000 to 10000 nM in the experiment on Ba/F3 parental cells.
`Cc1ccc(Oc2ccc(Nc3ncnc4sc5c(c34)CN(C(=O)/C=C/CN(C)C)CC5)cc2C)cn1` [Compound 108, (E)-4-(Dimethylamino)-1-(4-((3-methyl-4-((6-methylpyridin-3-yl)oxy)phenyl)amino)-7,8-dihydropyrido[3′,4′:4,5]thieno[2,3-d]pyrimidin-6(5H)-yl)but-2-en-1-one]: the GI50 is under 100 nM in the experiment with Ba/F3 HER2YVMA cells and 1000 to 10000 nM in the experiment on Ba/F3 parental cells.
With `Cc1ccc(Oc2ccc(Nc3ncnc4sc5c(c34)CCN(C(=O)/C=C/CN3CCOCC3)C5)cc2C)cn1` [Compound 17, (E)-1-(4-((3-Methyl-4-((6-methylpyridin-3-yl)oxy)phenyl)amino)-5,6-dihydropyrido[4′,3′:4,5]thieno[2,3-d]pyrimidin-7(8H)-yl)-4-morpholinobut-2-en-1-one], the EC50 on HER2 was under 100 nM; at EGFR (setting [1]) it was 100 to 350 nM.
For the molecule `Cc1ccc(Oc2ccc(Nc3ncnc4sc5c(c34)CCN(C(=O)/C=C/CN3CC4CCC(C4)C3)C5)cc2C)cn1` [Compound 16, (E)-4-(3-azabicyclo[3.2.1]octan-3-yl)-1-(4-((3-methyl-4-((6-methylpyridin-3-yl)oxy)phenyl)amino)-5,8-dihydropyrido[4′,3′:4,5]thieno[2,3-d]pyrimidin-7(6H)-yl)but-2-en-1-one benzenesulfonate salt], the results for the EC50 at HER2 and on EGFR were under 100 nM and 100 to 350 nM, respectively.
